# Measured values taken from ChEMBL document CHEMBL1201862, “PubChem BioAssay data set” (2004).
# The source made the active and inactive calls.
# Assays:
# HEK293 [1] = experiment: cells; settings: Homo sapiens
# [2] = biological target: SWI/SNF-related matrix-associated actin-dependent regulator of chromatin subfamily A member 2 (Homo sapiens, UniProt P51531); experiment: Luminescence-based cell-based high throughput dose response assay to identify activators of the function of SWI/SNF related, matrix associated, actin dependent regulator of chromatin, subfamily a, member 2 (SMARCA2, BRM).; assay type: functional
# HEK293 [3] = experiment: cells; settings: Homo sapiens; remark: listed apart in the source
# [4] = biological target: Beta-2 adrenergic receptor (Homo sapiens, UniProt P07550); experiment: ADRB2 activation measured by internalization – cell-based, FAP fluorogen, flow cytometry, cherry pick 1, dose response (AID 588763); assay type: functional
# [5] = Counterscreen for activators of the function of SWI/SNF related, matrix associated, actin dependent regulator of chromatin, subfamily a, member 2 (SMARCA2, BRM): Luminescence-based cell-based high throughput dose response assay to identify non-selective compounds using the VP16 reporter assay.; assay type: functional
# [6] = biological target: Fructose-bisphosphate aldolase (Mycobacterium tuberculosis, UniProt P9WQA3); experiment: Fluorescence-based biochemical high throughput dose response assay for inhibitors of the fructose-bisphosphate aldolase (FBA) of M. tuberculosis.; assay type: functional
# [7] = biological target: T1, High affinity choline transporter 1 (Homo sapiens, UniProt Q9GZV3); experiment: human choline transporter blockers, potency – cell-based, 5-point CRC, membrane potential dye, dose response (AID 504840); assay type: functional
# T1 sequence (Q9GZV3 whole entry): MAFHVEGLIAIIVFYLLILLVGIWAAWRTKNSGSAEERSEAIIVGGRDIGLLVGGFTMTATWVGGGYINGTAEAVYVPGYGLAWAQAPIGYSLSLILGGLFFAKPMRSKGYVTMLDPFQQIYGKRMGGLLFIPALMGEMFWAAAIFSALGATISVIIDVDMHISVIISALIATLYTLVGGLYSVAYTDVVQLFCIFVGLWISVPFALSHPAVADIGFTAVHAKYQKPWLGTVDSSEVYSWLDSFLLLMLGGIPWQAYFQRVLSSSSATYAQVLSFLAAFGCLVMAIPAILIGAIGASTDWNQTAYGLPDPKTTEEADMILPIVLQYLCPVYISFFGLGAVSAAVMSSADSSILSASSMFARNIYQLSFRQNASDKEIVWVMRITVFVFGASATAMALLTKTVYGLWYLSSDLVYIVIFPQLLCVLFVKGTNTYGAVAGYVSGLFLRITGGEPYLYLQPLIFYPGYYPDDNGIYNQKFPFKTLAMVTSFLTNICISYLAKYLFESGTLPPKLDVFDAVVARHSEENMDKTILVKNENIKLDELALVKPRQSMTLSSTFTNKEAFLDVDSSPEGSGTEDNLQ
# cells = assay type: functional, cell-based; settings: HEK-CNG
# [8] = reduction of Shn3 3'UTR-driven luciferase in osteoblasts – cell-based, Clone20 osteoblasts, firefly luciferase, cherry-picked, dose response (AID 624132); assay type: functional;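 further: firefly luciferase luminescence from reporter carrying the Shn3 3'UTR in osteoblasts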
# [9] = HEK-293T viability loss after treatment – luminescence, T-cell screen hits, cytotoxicity control for TCR NF-kB inhibitor project, dose response (AID 489026); assay type: functional, cell-based;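 further: cells exposed to compound about 14 hours before the viability readout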
# Galanin receptor type 3 = Galanin receptor type 3 (Homo sapiens, UniProt O60755); experiment: Fluorescence-based cell-based primary high throughput dose response assay to identify antagonists of the Galanin Receptor 3 (GalR3).; assay type: functional
# [10] = non-specific 3'UTR reporter inhibition in Clone20-Shn3RL – cell-based, Renilla luciferase, cherry-picked, counter-screen for Shn3 inhibitor project, dose response (AID 624133); assay type: functional
# Protein Wnt-3a [11] = biological target: T2, Protein Wnt-3a (Mus musculus, UniProt P27467); experiment: antagonism of Wnt3a pathway luciferase reporter – Wnt-LIGHT cells, luminescence, selectivity assay for Gli-SUFU antagonist project, dose response (AID 651570); assay type: functional; settings: read-out: IC50_Mean;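 further: Wnt-LIGHT reporter cells stimulated with conditioned medium from Wnt3a-producing cells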
# INS1 = experiment: INS-1E survival protection against cytokine death – cell-based, luminescence, retest, dose response (AID 449756); assay type: functional; settings: Rattus norvegicus;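 further: cell death triggered by IL-1 beta plus TNF-alpha plus IFN-gamma mixture; protective hits raise ATP signal compared with cytokine alone wells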
# [12] = biological target: Endoplasmic reticulum aminopeptidase 1 (Homo sapiens, UniProt Q9NZ08); experiment: inhibition of human ERAP1 enzyme activity – biochemical, cherry-pick, set 2, plate reader, dose response (AID 743314)
# Protein Wnt-3a [13] = biological target: T2, Protein Wnt-3a; experiment: SAR analysis of small molecule antagonists of Gli-SUFU in a Wnt3a luminescent reporter assay.; assay type: functional
# [14] = MITF: Counter assay: A375 proliferation Measured in Cell-Based System Using Plate Reader - 2084-03_Inhibitor_Dose_DryPowder_Activity_Set8.; assay type: functional; settings: A-375
# [15] = inhibitors of TRPM1-promoter reporter in SK-MEL-5 – cell-based, luciferase, dry powder, set 8, MITF inhibitor project, dose response (AID 624430); assay type: functional
# [16] = MITF Orthogonal Assay: SK-MEL-5 CTG Assay Measured in Cell-Based System Using Plate Reader - 2084-02_Inhibitor_Dose_DryPowder_Activity_Set7.; assay type: functional
# A549 = experiment: viability loss in A549 cells – cell-based, plate reader, cherry-pick samples, cytotoxicity control, dose response (AID 687028); assay type: functional; settings: Homo sapiens
# [17] = viability loss in mouse NIH3T3 cells – cell-based, CellTiter-Glo luminescence, dry powder, cytotoxicity control for PglD inhibitor project, dose response (AID 652044); assay type: functional
# Beta Lactamase [18] = biological target: T3, Beta Lactamase (Pseudomonas aeruginosa, UniProt Q932Y6); experiment: VIM-2 CCF2 hydrolysis inhibition, assay artifact filter – biochemical, FRET readout, CCF2 substrate, artefact control for selective VIM-2 inhibitor project, dose response (AID 1926)
# Beta-lactamase [19] = biological target: T4, Beta-lactamase (Pseudomonas aeruginosa, UniProt Q79MP6); experiment: inhibition of IMP-1 beta-lactamase activity – biochemical, epi-absorbance, selectivity assay for VIM-2 inhibitor project, dose response (AID 1920)
# Beta-lactamase [20] = biological target: T4, Beta-lactamase; experiment: […] counterscreen for selective VIM-2 inhibitors: dose response biochemical high throughput screening assay to identify inhibitors of IMP-1 metallo-beta-lactamase.
# Beta-lactamase [21] = biological target: Beta-lactamase (Salmonella choleraesuis (strain SC-B67), UniProt Q5J463); experiment: Epi-absorbance-based counterscreen for selective VIM-2 inhibitors: dose response biochemical high throughput screening assay to identify inhibitors of TEM-1 serine-beta-lactamase.
# Beta Lactamase [22] = biological target: T3, Beta Lactamase; experiment: concentration-dependent VIM-2 enzyme inhibition – biochemical, epi-absorbance readout, selective inhibitors, dose response (AID 1919)
# [23] = biological target: COUP transcription factor 2 (Homo sapiens, UniProt P24468); experiment: Luminescence-based cell-based high throughput dose response assay to identify inhibitors of COUP-TFII (NR2F2).; assay type: functional;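 further: HEK293 cells transiently cotransfected with COUP-TFII expression vector and reporter; luciferase reporter luminescence driven by COUP-TFII from the pX2-168 reporter plasmid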
# Sequence of COUP transcription factor 2 (P24468 whole entry): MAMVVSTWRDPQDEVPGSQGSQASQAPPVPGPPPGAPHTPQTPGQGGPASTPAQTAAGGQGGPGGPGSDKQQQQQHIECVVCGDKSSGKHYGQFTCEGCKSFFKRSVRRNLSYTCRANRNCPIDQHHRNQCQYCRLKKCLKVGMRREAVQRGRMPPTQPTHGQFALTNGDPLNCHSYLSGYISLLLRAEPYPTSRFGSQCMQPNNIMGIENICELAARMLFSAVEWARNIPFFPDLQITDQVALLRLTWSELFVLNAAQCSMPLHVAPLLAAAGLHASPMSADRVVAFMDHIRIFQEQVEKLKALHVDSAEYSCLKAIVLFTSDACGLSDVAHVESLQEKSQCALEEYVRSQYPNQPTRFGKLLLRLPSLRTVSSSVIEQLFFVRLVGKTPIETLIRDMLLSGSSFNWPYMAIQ
# T2 sequence (P27467 whole entry): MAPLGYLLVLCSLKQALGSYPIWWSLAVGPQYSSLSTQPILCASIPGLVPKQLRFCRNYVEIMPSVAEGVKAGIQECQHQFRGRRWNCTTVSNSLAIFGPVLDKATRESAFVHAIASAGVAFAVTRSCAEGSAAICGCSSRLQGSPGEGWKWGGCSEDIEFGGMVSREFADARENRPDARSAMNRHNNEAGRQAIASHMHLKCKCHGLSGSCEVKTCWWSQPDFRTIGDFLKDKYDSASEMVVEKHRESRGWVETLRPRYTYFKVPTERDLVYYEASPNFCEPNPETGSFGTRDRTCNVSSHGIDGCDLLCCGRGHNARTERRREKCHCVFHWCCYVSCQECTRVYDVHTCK
# T4 sequence (Q79MP6 whole entry): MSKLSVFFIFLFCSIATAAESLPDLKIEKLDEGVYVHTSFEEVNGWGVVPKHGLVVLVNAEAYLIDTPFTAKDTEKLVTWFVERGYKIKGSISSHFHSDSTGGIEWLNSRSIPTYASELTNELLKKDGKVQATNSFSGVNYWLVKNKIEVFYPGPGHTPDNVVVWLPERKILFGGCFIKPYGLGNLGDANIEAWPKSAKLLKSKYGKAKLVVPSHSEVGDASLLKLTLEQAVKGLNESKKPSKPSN
# T3 sequence (Q932Y6 whole entry): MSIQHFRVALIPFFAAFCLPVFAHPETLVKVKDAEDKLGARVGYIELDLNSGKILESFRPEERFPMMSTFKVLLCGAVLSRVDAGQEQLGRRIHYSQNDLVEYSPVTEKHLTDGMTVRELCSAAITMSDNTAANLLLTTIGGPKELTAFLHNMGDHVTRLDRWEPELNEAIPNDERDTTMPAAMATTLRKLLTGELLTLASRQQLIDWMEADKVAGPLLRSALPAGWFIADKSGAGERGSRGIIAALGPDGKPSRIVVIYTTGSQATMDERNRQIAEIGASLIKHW
# Sequence of Endoplasmic reticulum aminopeptidase 1 (Q9NZ08 whole entry): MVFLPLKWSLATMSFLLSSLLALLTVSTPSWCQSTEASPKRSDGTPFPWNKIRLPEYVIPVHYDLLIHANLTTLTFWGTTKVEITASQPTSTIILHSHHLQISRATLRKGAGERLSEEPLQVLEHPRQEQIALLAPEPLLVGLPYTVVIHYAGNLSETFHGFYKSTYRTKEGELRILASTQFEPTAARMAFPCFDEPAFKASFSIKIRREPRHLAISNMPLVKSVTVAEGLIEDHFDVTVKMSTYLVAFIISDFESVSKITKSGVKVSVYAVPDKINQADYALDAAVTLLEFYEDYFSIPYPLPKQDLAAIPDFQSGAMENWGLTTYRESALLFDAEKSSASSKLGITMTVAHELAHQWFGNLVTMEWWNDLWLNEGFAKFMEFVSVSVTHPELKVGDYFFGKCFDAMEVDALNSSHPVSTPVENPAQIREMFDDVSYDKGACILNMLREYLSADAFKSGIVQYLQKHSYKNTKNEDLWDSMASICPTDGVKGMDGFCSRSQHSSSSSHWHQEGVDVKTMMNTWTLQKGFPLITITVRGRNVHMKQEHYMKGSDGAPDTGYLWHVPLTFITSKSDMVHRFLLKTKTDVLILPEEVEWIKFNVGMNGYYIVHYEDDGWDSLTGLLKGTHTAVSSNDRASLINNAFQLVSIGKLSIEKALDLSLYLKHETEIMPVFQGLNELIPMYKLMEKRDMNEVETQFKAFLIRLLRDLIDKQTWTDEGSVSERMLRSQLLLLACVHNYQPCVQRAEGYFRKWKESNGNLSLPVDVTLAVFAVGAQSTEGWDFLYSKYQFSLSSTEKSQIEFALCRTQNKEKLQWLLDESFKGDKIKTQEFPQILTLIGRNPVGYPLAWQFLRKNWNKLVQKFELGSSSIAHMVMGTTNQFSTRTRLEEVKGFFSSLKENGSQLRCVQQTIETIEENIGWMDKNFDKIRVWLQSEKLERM
# Sequence of Beta-2 adrenergic receptor (P07550 whole entry): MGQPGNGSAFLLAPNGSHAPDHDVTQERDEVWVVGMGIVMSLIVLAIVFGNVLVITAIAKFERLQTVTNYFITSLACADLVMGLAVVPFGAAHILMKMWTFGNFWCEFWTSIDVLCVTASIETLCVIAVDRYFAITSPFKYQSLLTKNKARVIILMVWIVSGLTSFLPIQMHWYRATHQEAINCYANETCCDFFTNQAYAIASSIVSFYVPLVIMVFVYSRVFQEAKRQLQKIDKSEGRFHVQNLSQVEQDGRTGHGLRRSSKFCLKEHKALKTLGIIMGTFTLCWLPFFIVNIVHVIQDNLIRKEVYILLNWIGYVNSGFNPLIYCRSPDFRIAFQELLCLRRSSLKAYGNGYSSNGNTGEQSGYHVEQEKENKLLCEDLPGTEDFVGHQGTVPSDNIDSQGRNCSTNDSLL
# Sequence of SWI/SNF-related matrix-associated actin-dependent regulator of chromatin subfamily A member 2 (P51531 whole entry): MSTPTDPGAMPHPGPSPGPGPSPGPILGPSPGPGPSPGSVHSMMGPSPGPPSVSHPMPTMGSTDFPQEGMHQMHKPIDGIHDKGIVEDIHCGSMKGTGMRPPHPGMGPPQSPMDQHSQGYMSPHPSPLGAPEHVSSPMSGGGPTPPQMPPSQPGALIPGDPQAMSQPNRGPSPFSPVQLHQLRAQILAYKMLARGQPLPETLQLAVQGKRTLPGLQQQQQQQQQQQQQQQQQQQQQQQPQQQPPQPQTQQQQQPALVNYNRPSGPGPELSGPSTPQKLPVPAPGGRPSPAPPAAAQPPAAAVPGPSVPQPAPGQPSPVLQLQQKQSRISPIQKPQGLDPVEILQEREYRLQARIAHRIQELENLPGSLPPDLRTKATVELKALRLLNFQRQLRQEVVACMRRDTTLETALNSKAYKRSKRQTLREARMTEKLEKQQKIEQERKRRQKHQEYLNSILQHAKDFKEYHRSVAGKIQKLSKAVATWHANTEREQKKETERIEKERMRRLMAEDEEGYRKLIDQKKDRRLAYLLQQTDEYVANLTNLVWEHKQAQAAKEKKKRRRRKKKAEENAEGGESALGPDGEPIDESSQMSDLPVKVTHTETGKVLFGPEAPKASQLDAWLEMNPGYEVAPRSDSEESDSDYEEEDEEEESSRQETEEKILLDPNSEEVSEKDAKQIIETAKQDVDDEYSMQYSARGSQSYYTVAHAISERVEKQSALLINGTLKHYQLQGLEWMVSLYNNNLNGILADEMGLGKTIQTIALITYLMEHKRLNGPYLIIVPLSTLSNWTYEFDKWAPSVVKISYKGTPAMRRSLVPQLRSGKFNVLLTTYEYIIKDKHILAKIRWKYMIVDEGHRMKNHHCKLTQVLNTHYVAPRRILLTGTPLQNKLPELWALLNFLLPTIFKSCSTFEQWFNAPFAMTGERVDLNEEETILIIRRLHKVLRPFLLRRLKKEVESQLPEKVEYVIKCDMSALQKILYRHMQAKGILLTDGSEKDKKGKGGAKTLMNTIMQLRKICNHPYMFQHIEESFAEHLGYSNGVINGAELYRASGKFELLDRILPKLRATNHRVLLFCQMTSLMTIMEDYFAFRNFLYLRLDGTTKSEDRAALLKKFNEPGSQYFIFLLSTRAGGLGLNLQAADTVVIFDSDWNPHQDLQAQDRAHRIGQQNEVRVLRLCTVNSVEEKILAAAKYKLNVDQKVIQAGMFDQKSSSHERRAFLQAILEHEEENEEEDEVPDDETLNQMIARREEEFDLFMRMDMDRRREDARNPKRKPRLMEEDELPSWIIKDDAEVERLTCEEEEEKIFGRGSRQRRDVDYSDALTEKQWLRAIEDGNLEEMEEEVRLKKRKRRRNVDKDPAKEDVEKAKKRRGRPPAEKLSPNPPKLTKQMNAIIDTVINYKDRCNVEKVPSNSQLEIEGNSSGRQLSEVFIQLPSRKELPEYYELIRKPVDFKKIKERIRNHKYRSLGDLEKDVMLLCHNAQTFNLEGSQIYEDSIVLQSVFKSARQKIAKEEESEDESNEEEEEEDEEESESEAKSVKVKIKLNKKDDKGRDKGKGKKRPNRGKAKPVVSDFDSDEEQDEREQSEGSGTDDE
# Sequence of Galanin receptor type 3 (O60755 whole entry): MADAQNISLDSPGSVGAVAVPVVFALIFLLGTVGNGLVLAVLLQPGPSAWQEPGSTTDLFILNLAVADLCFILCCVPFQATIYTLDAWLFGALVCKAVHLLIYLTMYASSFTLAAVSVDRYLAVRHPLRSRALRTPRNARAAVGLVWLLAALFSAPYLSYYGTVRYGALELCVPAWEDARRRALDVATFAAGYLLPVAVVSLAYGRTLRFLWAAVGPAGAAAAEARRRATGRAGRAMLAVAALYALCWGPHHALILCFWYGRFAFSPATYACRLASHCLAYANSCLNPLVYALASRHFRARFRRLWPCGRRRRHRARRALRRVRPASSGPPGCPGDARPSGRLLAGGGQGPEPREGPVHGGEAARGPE
# Sequence of Fructose-bisphosphate aldolase (P9WQA3 whole entry): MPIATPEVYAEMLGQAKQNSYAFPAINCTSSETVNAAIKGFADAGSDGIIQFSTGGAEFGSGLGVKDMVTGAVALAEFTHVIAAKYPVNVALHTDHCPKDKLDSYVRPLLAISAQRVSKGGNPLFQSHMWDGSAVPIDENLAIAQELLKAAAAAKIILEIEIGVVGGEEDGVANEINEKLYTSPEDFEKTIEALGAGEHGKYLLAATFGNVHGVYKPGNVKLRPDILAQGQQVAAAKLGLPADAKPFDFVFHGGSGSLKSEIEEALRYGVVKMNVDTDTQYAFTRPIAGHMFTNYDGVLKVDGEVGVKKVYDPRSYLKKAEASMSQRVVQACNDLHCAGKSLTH
structure (smiles),measurement,setting,value
CC1(C)Cc2c(c(-c3ccco3)nc3sc4c(NCCCO)ncnc4c23)CO1,EC50,HEK293 [1],> 59.6 µM (inactive)
same,EC50,[2],> 91.2 µM (inactive)
same,EC50,HEK293 [3],> 59.6 µM (inactive)
same,EC50,[4],0.0207 µM (active)
same,EC50,[5],> 91.2 µM (inactive)
CN(C)c1nc(OCc2ccccc2)c2ncc(=O)[nH]c2n1,IC50,[6],2.82 µM (active)
CCOC(=O)CC1CCCCN1C(=O)c1cc(COc2cccc3cnccc23)on1 (configuration not stated),IC50,[7],11 µM (active)
same,EC50,cells,> 29.9 µM (inactive)
same,AC50,[8],0.713 µM (active)
same,IC50,[9],> 80 µM (inactive)
same,IC50,Galanin receptor type 3,0.448 µM (active)
same,AC50,[10],0.67 µM (active)
same,IC50,Protein Wnt-3a [11],0.777 µM (active)
same,AC50,INS1,5.89 µM (active)
COC(=O)[C@@H]1[C@@H](CO)[C@@H]2Cn3c(ccc(/C=C/c4ccccc4)c3=O)[C@H]1N2C(=O)C1CCC1,AC50,[12],3.47 µM (active)
O=C(Nc1cc(N2CCCCC2)ncn1)c1ccccc1Cl,IC50,Protein Wnt-3a [13],> 21.8 µM (inactive)
CN1CCN(C2=C(Nc3ccc(Cl)cc3)C(=O)c3ccccc3C2=O)CC1,AC50,[14],39.3 µM (active)
same,AC50,[15],17.4 µM (active)
same,AC50,[16],11.6 µM (active)
Cc1ccccc1S(=O)(=O)N1CC[C@@H]2[C@H](CO)Nc3ccc(-c4cccc(C#N)c4)cc3[C@@H]21,AC50,A549,28.8 µM (active)
C[C@@H]1CN([C@@H](C)CO)C(=O)c2cc(NC(=O)Nc3ccc(F)cc3)ccc2O[C@@H]1CN(C)CC1CCCCC1,AC50,[17],43.4 µM (active)
CC(=C/c1ccccc1)/C=N/n1c(C)nnc1S,IC50,Beta Lactamase [18],2.5 µM (active)
same,IC50,Beta-lactamase [19],> 59.6 µM (inactive)
same,IC50,Beta-lactamase [20],> 59.6 µM (inactive)
same,IC50,Beta-lactamase [21],> 59.6 µM (inactive)
same,IC50,Beta Lactamase [22],9.98 µM (active)
Cc1ccc(-n2nc3c(=O)n(C(C)C(=O)NCCCc4ccccc4)nc(C)c3c2C)cc1 (configuration not stated),IC50,[23],11.7 µM (inactive)
